One may read the EC50 as the concentration at which the effect is half-maximal. As usually defined, the IC50 is the concentration needed to halve the response being measured. The low end stands for higher potency, the high end for lower potency.

The assay deals with CEM cells HIV-1 protection, formazan growth assay. The assay can be described thus: NCI AIDS Antiviral Assay. To be noted: for IC50: measured here: growth of uninfected CEM cells. Summed up: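 Screen of anti-HIV-1 activity in human CEM cells using a formazan-based growth measurement at five drug concentrations. Hits with 50% or greater protection were repeated, and confirmation required reproducible complete protection.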

Calls of active or inactive are those of the source.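 How the source made its calls: active means compounds giving half or more protection of infected cells from virus-caused growth loss, again on retest; inactive means the rest.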 Some results are limits rather than exact numbers.

As to `Nc1nc(Cl)cc(NCC2(CO)CC(CCc3ccccc3)C2)n1` (stereo not given), the EC50 was more than 20 µM and the 50% inhibitory concentration (IC50) worked out at 14.8 µM.

`C=C(CC1CCCS(=O)(=O)C1)S(=O)(=O)c1ccc(C)cc1` (stereo not given): the EC50 was more than 200 µM and the IC50 is more than 200 µM.

Take `Nc1nc2c3nc(Nc4ccccc4)sc3nc(=S)n2c2sc(Nc3ccccc3)nc12`: the EC50 is more than 11 µM and the half-maximal inhibitory concentration (IC50) was more than 11 µM.

For the molecule `Cc1cc2c(c3oc(=O)ccc13)[C@@H](OC(=O)C13CCC(C)(C(=O)O1)C3(C)C)[C@@H](OC(=O)C13CCC(C)(C(=O)O1)C3(C)C)C(C)(C)O2` (stereo not given in full), the concentration for a half-maximal effect (EC50) was 0.38 µM and the 50% inhibitory concentration (IC50) amounted to 2 µM.

For the molecule `O=c1c2n[nH]nc2nc2n1CC(c1ccccc1)S2` (stereo not given), the outcome was inactive.

With `Cc1cc(C)c(-c2noc(-c3ccccc3)c2C2=NCCN2)c(C)c1`, the result was inactive.

As for `COCN(COC)c1nc(CCC(Br)(Br)Br)nc(N(COC)COC)n1`, the EC50 is more than 83.2 µM and the half-maximal inhibitory concentration (IC50) worked out at 37.2 µM.

`COc1ccc(NC(=O)CC/C(CC(=O)c2ccco2)=N/NC(=O)C(N)=O)cc1`: the EC50 was more than 25.1 µM and the IC50 was more than 25.1 µM.

For `Cc1nnc(N)nc1C/C=C/C(C)Sc1ccc(Cl)cc1` (stereo not given), the EC50 was more than 200 µM and the IC50 amounted to 6.61 µM.

In the case of `CC(C)=CCC[C@@H](C)C1=C(Nc2ccccc2F)C(O)=C(C)C(=O)C1=O`, the EC50 is more than 200 µM and the IC50 amounted to 2.14 µM.

In the case of `Cc1[nH]ccc2c1[nH]c1cc(=O)ccc12`, the EC50 is more than 1070 µM and the half-maximal inhibitory concentration (IC50) was 16.6 µM.

Regarding `Cn1ccc(C(=O)NCCCCCNC(=O)c2ccn(C)c(=O)c2O)c(O)c1=O`, the EC50 is more than 200 µM and the IC50 is more than 200 µM.

In the case of `CCOC(=O)C1=C(N)SCCC1`, the EC50 was more than 1320 µM and the concentration for half-maximal inhibition (IC50) turned out to be 257 µM.

For the molecule `CCC[CH2][Sn]1([CH2]CCC)[O]CC(COc2c(Cl)cc(Cl)cc2Cl)[O]1` (stereo not given), the EC50 was more than 3.98 µM and the 50% inhibitory concentration (IC50) is 1.86 µM.

In the case of `CCC[CH2][Sn]([CH2]CCC)([O]C(=O)C(OC)c1ccccc1)[O]C(=O)C(OC)c1ccccc1` (stereo not given), the EC50 is more than 6.76 µM and the IC50 stood at 0.182 µM.

In the case of `O=C1CN2CC(c3ccccc3)OC2c2ccccc2N1` (stereo not given), the EC50 was more than 224 µM and the half-maximal inhibitory concentration (IC50) was more than 224 µM.

With `CCN(CC)c1ccc(/C=C2/C[N+](C)(C)C/C(=C/c3ccc(N(CC)CC)cc3)C2=O)cc1`, the EC50 was more than 6.61 µM and the IC50 stood at 6.46 µM.

As for `COc1ccc(-n2c(C)nc3ccc(NC4OC(CO)C(O)C(O)C4O)cc3c2=O)cc1` (stereo not given), the EC50 is more than 200 µM and the IC50 was more than 200 µM.

In the case of `C=CCc1cccc(/C=N\N=C(/N)NO)c1O`, the outcome was inactive.

As for `CCOc1ccc(/C=N/[N+](C)(C)C)cc1OCC`, the EC50 is more than 200 µM and the IC50 was more than 200 µM.

On to `CSc1nnc(SC)nn1`, for which the EC50 is more than 200 µM and the IC50 was found to be 0.851 µM.

Turning to `COc1cc2c(c(OC)c1OC)CCNC2C1=C(O)COC1=O` (stereo not given), the result was inactive.

As for `O=C1NC(=O)C(=Cc2ccc(F)cc2)C(=O)N1`, the EC50 was more than 112 µM and the IC50 was more than 112 µM.

For `Cc1ccc(S(=O)(=O)N/N=C2/CCC3(O)CC2(C)CCC2[C@H]3CC2(C)C)cc1` (stereo not given in full), the EC50 was more than 200 µM and the 50% inhibitory concentration (IC50) is 33.9 µM.

With `Cc1cc(S(=O)(=O)Nc2nc(N)nc3nc4ccccc4n23)c(S)cc1Cl`, the EC50 was 95.5 µM and the IC50 was 380 µM.

Regarding `S=C(Nc1ccc(Cl)c(Cl)c1)N1c2ccccc2-n2cccc2C1c1cccnc1` (stereo not given), the EC50 is more than 49 µM and the IC50 worked out at 25.1 µM.

For the molecule `Cc1ccc(NC(=O)C(=O)Cc2cc[n+]([O-])cc2)cc1`, the EC50 was more than 47.9 µM and the concentration for half-maximal inhibition (IC50) was more than 47.9 µM.

With `CC(=O)n1c2ccc(Br)cc2c2nc3ccccc3nc21`, the EC50 is more than 200 µM and the concentration for half-maximal inhibition (IC50) is more than 200 µM.

For the molecule `COc1ccc2[nH]cc(C(=O)C(=O)NC34CC5CC(CC(C5)C3)C4)c2c1`, the EC50 was more than 200 µM and the IC50 was 6.03 µM.

On to `COc1ccc(OC)c2c1ccc1c(C)c3ccccc3c(C)c12`, for which the EC50 was more than 200 µM and the IC50 worked out at 35.5 µM.

For the molecule `Cc1ccc(/C=C/C(=O)c2cc(CN(C)C)c(O)c(CN(C)C)c2)cc1`, the EC50 was more than 200 µM and the IC50 turned out to be 20.4 µM.

Regarding `Nc1ccccc1S(=O)(=O)c1ccccc1`, the result was active.

Regarding `CC(=O)Oc1c2c(c(CC=C(C)C)c3c1C(=O)C1=C[C@@H]4CC5C(C)(C)OC(C/C=C(/C)C(=O)O)(C4=O)[C@@]15O3)OC(C)(CCC=C(C)C)C=C2` (stereo not given in full), the EC50 is more than 2 µM and the half-inhibitory concentration (IC50) stood at 0.324 µM.

`COC(=O)C1(Cc2cccc(Cl)c2)CCCCCCN1C(=O)c1ccccc1` (stereo not given): the EC50 was more than 112 µM and the IC50 came out at 20.4 µM.

Regarding `COC(=O)C1=C(C(=O)OC)SC(=Cc2ccccc2C=C2SC(C(=O)OC)=C(C(=O)OC)S2)S1`, the result was inactive.

With `c1ccc(C2=C(c3ccccc3)/N=N/C(c3ccccc3)=C(c3ccccc3)\N=N\2)cc1`, the EC50 is more than 200 µM and the IC50 is more than 200 µM.

Take `CCc1n[nH]c(=O)n1CCO`: the result was inactive.

Regarding `CC1(O)CC(=O)c2c(cc3ccc(-c4c5c(c(O)c6c(O)cccc46)C(=O)CC(C)(O)C5)c(O)c3c2O)C1` (stereo not given), the EC50 was more than 200 µM and the IC50 amounted to 0.389 µM.

Turning to `COc1ccccc1N=Nc1c(-c2ccccc2)nn(C(=O)CC(=O)Nc2cccc(C)c2)c1-c1ccccc1`, the EC50 was more than 35.5 µM and the IC50 is 20.9 µM.

As for `CN(C)P(=O)(/C(N)=N/Nc1ccc([N+](=O)[O-])cc1)N(C)C`, the EC50 was more than 158 µM and the IC50 turned out to be 155 µM.

For `OCC1C(O)[C@@H]2OC3(CCCC3)O[C@@H]2CN1OC/C=C/c1ccccc1` (stereo not given in full), the EC50 was more than 200 µM and the concentration for half-maximal inhibition (IC50) amounted to 145 µM.

As for `Cc1ccccc1C(C#N)/C(=N/NC(N)=S)C(=O)Nc1c(C)cccc1C` (stereo not given), the EC50 was more than 245 µM and the 50% inhibitory concentration (IC50) was 224 µM.

With `Cc1c(C)c2c(c(N)c1C#N)C(=O)N(NC(=O)c1ccccc1)C2=O`, the EC50 is more than 200 µM and the IC50 was determined as 186 µM.

As to `CCCCCCCCC1=C(OC)C(=O)c2ccc(COC(C)=O)nc2C1=O`, the outcome was inactive.

On to `CC(=O)Oc1ccc(-c2oc3c([C@H]4C=C(C)CC(c5ccc(OC(C)=O)cc5OC(C)=O)[C@@H]4C(=O)c4ccc(OC(C)=O)c(CC=C(C)C)c4OC(C)=O)c(OC(C)=O)cc(O)c3c(=O)c2CC=C(C)C)c(OC(C)=O)c1` (stereo not given in full), for which the EC50 was more than 11.7 µM and the concentration for half-maximal inhibition (IC50) turned out to be 7.41 µM.

As to `Cc1ccc(SSc2ccc([N+](=O)[O-])cc2[N+](=O)[O-])cc1`, the EC50 was more than 200 µM and the half-inhibitory concentration (IC50) worked out at 9.12 µM.

For the molecule `O=[N+]([O-])c1ccc2nncc(N3CC3)c2c1`, the result was inactive.

For the molecule `O=C(/C=C/c1cccs1)c1ccsc1`, the EC50 was more than 200 µM and the 50% inhibitory concentration (IC50) was determined as 11.7 µM.

Take `O=C(O)CCCCCCCCCCCCl`: the EC50 was more than 200 µM and the IC50 amounted to 91.2 µM.

On to `CCOC(=N)COC(=O)c1ccccc1`, for which the EC50 is more than 200 µM and the IC50 is more than 200 µM.

As to `c1ccc(NNCC[P+](c2ccccc2)(c2ccccc2)c2ccccc2)cc1`, the EC50 was more than 200 µM and the IC50 came to 2.88 µM.

Turning to `COc1cc2oc(=O)cc(C)c2cc1[N+](=O)[O-]`, the EC50 was more than 53.7 µM and the IC50 was 21.9 µM.

The values above are taken from PubChem BioAssay AID179 (DTP/NCI, 2004).
